Like-named read-outs stand apart in the source and are kept apart here.
Columns and labels:
[1] = target: T1, mouse GPR40 (Mus musculus, UniProt Q76JU9); experiment: Calcium mobilization assay in HEK293-mGPR40 cells; format: cell-based; conditions: calcium mobilization
T1 construct: expressed in transfected cells
Protocol: CHO-hGPR120 and CHO cells were cultured in DMEM/F-12 (Invitrogen) with 10% FBS (Sigma) and HEK293-mGPR40 in DMEM (Invitrogen) supplemented with 10% FBS in 384-well poly-D-Lysin coated microplates (Greiner) at 37°C, 95% humidity and 5% CO2. After 19 hours cell media was replaced with Calcium4 dye (Molecular Devices) in HBSS (Invitrogen), 20 mM HEPES (Invitrogen), pH 7.4 and 1.25 mM Probenecid (Sigma). After 1 hour at room temperature agonists were added and calcium mobilization was detected as change in fluorescence (λex = 488 and λem = 540 nm) using a FLIPR^TETRA (Molecular Devices).

[2] = tested on: Caco-2 cells; parameters: method as in PMID 26791484; conditions: cited from earlier work
[3] = tested on: GPR120; parameters: method as in PMID 24997608; conditions: read-out: EC50 in β-arrestin; cited from earlier work
[4] = tested on: GPR120; parameters: method as in PMID 24997608; conditions: read-out: EC50 in calcium mobilization; cited from earlier work
[5] = tested on: lean female mice; experiment: Intravenous glucose tolerance test (IVGTT) in lean female mice; format: in vivo, mouse; conditions: 30 nmol/kg i.p. 15 min prior to IVGTT; trend towards lower response
Protocol: Lean female mice (body weight 20–25 g), were randomized on body weight and fasted 4 hours prior to the IVGTT. Metabolex-36 (100 mg/kg) was administered orally 60 min and AZ13581837 (35mg/kg) 30 min before the IVGTT ([…]). Control mice were given vehicle (0.5% HPMC, 0.1% Tween-80) at corresponding time points. The specificity of AZ13581837 was examined in IVGTT in GPR120 null mice. GPR120 agonist doses were selected to reach plasma levels of at least 10 times over the in vitro EC50 value to achieve maximal activation of GPR120 (S2 Appendix). Thirty minutes prior to the glucose load, the mice were anaesthetised (20 mg/kg fluanisone/0.8 mg/kg fentanyl (Hypnorm®, Janssen, Beerse, Belgium) and 10 mg/kg midazolam (Dormicum®, Hoffman-LaRoche, Basel, Switzerland)) to allow for rapid blood sampling. The mice were kept at a heating pad to maintain body temperature.
In separate experiments, mice were pretreated with the GLP-1 receptor antagonist exendin 9–39 (30 nmol/kg, Bachem; intraperitoneally) alone or in combination with the GPR120 agonists, 15 min prior to the IVGTT. Insulin and glucose were measured 0, 1, 5, 10, 20 and 40 min after intravenous (iv) glucose administration. In separate groups of mice total GLP-1 levels were measured 60 min after oral administration of Metabolex-36 or 30 min after AZ13581837 and in corresponding vehicle (0.5% HPMC, 0.1% Tween-80) dosed mice. Blood samples were collected in EDTA coated tubes, centrifuged at 10000xg for 4 min, and plasma was separated and stored frozen until analyzed.
In the IVGTT, the acute insulin response (AIR) was calculated as the mean of suprabasal 1 and 5 min values, and the glucose elimination was quantified using the glucose elimination constant (KG) calculated as the slope of the logarithmic transformation of circulating glucose between 1 and 20 min after the glucose bolus. Multiple comparisons between the different groups were performed by one-way ANOVA. Tukey’s or Bonferroni’s post hoc test were used to calculate statistical differences between the groups. Significant statistical difference was considered at p<0.05. Data are presented as mean ± SEM.

[6] = tested on: dispersed wt mouse islets cell; experiment: cAMP production in dispersed wild type mouse islet cells; format: cell-based; conditions: 50 nM Exendin-4
Protocol: (§1) Mouse islets were isolated from pancreas by collagenase digestion, handpicked under microscope following multiple washing steps and dispersed to single cells using TrypLE Express (Gibco). The dispersed islet cells (20 000 cells/well) were incubated with the GPR120 agonists for 30 min in 96-well black plates (Corning) at 37°C in Krebs ringer phosphate Hepes buffer, pH 7.4, with 11 mM Glucose, 0.1% BSA and 0.5 mM 3-isobutyl-1-methylxanthine followed by addition of d2-labeled cAMP and anti-cAMP Cryptate in conjugation and lysis buffer (Cisbio). Produced cAMP was detected with homogenous time resolved fluorescence (HTRF) (λex = 340 nm, λem = 665 and 615 nm) using a Pherastar (BMG Labtech).

[7] = tested on: islets from GPR120 null mice; experiment: cAMP production in dispersed islet cells from GPR120 null mice; format: cell-based, mouse; conditions: 50 nM Exendin-4
Protocol: as §1

T1 sequence (Q76JU9 whole entry): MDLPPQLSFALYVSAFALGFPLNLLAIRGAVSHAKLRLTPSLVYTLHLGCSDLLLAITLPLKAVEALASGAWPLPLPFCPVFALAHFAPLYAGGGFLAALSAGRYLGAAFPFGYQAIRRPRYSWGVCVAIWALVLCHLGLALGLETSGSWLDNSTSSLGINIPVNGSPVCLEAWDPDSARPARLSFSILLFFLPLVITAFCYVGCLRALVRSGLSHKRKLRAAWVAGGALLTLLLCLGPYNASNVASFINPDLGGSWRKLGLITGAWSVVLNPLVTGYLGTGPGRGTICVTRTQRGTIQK

## O=C(O)CCc1ccc(NCc2cccc(Oc3ccccc3)c2)cc1 [GW9508]
[1]
  EC50: 900 ± 300 nM
[2]
  β-arrestin-2 recruitment in Caco-2 cells: recruited β-arrestin-2

## Exendin 9–39
[5]
  Insulin secretion, exendin 9–39 alone: no significant effect

## Exendin-4
[6]
  cAMP production in islet cells from wt mice (positive control): significantly stimulate cAMP production
[7]
  cAMP production in islet cells from GPR120 null mice (positive control): significantly stimulate cAMP production

From PMC5716539, “The acute glucose lowering effect of specific GPR120 activation in mice is mainly driven by glucagon-like peptide 1” (PLoS ONE, 2017)
